Data set [1] in a line: Cytotoxicity in RAW 264.7 macrophages (resazurin). It is filed as cell-based. Conditions: mouse, RAW 264.7 macrophages (ATCC TIB71), 50 μM to 800 μM, read-out: RAW 264.7 Macrophage CC50. On the procedure: (§1) VERO (ATCC CCL81) and RAW 264.7 cells (ATCC TIB71) were maintained in RPMI-1640 supplemented with 10% fetal bovine serum (FBS) (Sigma Aldrich, St. Louis, MO, USA) without phenol red at 37 °C and 5% CO2 [14]. […] Trypomastigotes were obtained from monolayers of infected VERO cells grown at 37 °C in an atmosphere with 5% CO2 in RPMI-1640, pH 7.4, supplemented with 10% FBS and 100 μg/mL gentamicin.
(§2) The reference drug benznidazole (BZ) was dissolved in dimethyl sulfoxide (DMSO) at 5% (w/v) at 0.002 M (stock) and the final concentration of DMSO in the experiments never exceeded 0.25% (v/v) to not affect the cell viability. The MLV, MLS, and free S were dispersed or dissolved in deionized water. The final concentration of these treatments in the experiments never exceeded 0.01% (v/v). […] Thereafter, 20 μL of resazurin—(0.39 mM, Sigma Aldrich, St. Louis, MO, USA) was added to each well, followed by incubation for 2 h, and then fluorescence was read on a microplate reader SpectraMax M5 (570 nmex/595 nmem) (Molecular Devices, Sunnyvale, CA, USA). Percentage of cell viability was calculated using the equation below, where A is the arbitrary fluorescence units (AFU) of the treatments, B is AFU culture medium with resazurin and C is AFU of the control group. […]
In general terms: Alamar Blue is a resazurin reagent that responds to reducing activity.

Data set [2] is described as follows: Cytotoxicity in VERO cells (resazurin). It is filed as cell-based. Conditions: African green monkey, VERO cells (ATCC CCL81), 50 μM to 800 μM, read-out: VERO Cell CC50. On the procedure: as §1, §2
Data set [3] deals with Epimastigotes of T. cruzi. The data set is described as follows: Ultrastructural changes in epimastigotes (SEM). The data set is classed as cell-based, Trypanosoma cruzi. Conditions: half of IC50 (BZ 7.91 µM, S 6.56 µM), 72 h. The procedure: Epimastigotes of T. cruzi were grown at a density of 5 × 10^5 cells/mL in RPMI culture medium containing the compounds tested at concentrations of 7.91 µM (BZ), 6.56 µM (S), and 7.93 µM (MLS) corresponding to the half of IC50 of each compound. After 72 h these cultures were centrifuged at 1600× g for 10 min. Parasites were washed in PBS and fixed for 1 h at room temperature with 2% formaldehyde and 2.5% glutaraldehyde in sodium cacodylate buffer (0.1 M, pH 7.2). Samples were then washed in 0.1 M cacodylate buffer and adhered to coverslips previously coated with poly-L-lysine (Sigma Aldrich, St. Louis, MO, USA). After adhesion, post-fixation was performed using a solution of 1% OsO4 containing 0.8% potassium ferrocyanide (K4Fe (CN)6). Then, parasites were dehydrated in increasing concentrations of acetone (30%, 50%, 70%, 90%, and 100%), subject to critical-point drying, metalized with gold, and observed in a scanning electron microscope (SEM)- (JEOL JSM-7000F, Tokyo, Japan). Sample images were visualized using a 15 kV beam voltage.

Data set [4] deals with T. cruzi intracellular amastigotes. Put plainly: Trypanocidal activity on intracellular amastigotes in infected VERO cells (counting of stained cells). The data set is classed as cell-based. To be noted: Trypanosoma cruzi, 6.25 μM to 100 μM, 72 h. On the procedure: (§3) VERO (ATCC CCL81) and RAW 264.7 cells (ATCC TIB71) were maintained in RPMI-1640 supplemented with 10% fetal bovine serum (FBS) (Sigma Aldrich, St. Louis, MO, USA) without phenol red at 37 °C and 5% CO2 [14]. […] Trypomastigotes were obtained from monolayers of infected VERO cells grown at 37 °C in an atmosphere with 5% CO2 in RPMI-1640, pH 7.4, supplemented with 10% FBS and 100 μg/mL gentamicin. […] Then, 2.5 × 10^5 epimastigotes/mL were resuspended in 150 μL and added to the microplates. After 48 h, resazurin was added (20 μL/well of resazurin −3 mM), incubated for further 24 h, and fluorescence was recorded as described above. Nanostructures’ effect on amastigotes was accessed in VERO cell line grown in RPMI medium containing 10% FBS and seeded at a density of 1 × 10^4 cells/well in 24-well microplates. […] Cells were fixed and stained with Kit for Fast Staining in Haematology (Figure S2), and the number of amastigotes was determined by counting 200 cells for each experimental group distributed in random microscopic fields. The IC50 values were determined by nonlinear regression in GraphPad Prism version 7.0 (GraphPad Software, San Diego, CA, USA). Selectivity indices (SI) were calculated using the formula: SI = CC50 cytotoxicity in VERO cells/IC50 cytotoxicity in intracellular amastigotes.

In data set [5] the test system is T. cruzi (strain CL-Brener) epimastigote. Put plainly: Trypanocidal activity on epimastigotes (resazurin). It is filed as cell-based. Conditions: Trypanosoma cruzi; 6.25 μM to 100 μM, 72 h. On the procedure: as §3
Another data set deals with Trypanosoma cruzi. Also on record: method as in PMID 24410674. To be noted: acute phase, mice, after 40 days of treatment, compared to control; cited from earlier work.
For data set [6] the following is noted: cited from earlier work.
Data set [7] is described as follows: Entrapment efficiency (filtration, absorbance at 320 nm). The data set is classed as physicochemical. Conditions: for Entrapment efficiency: mean of triplicate, 320 nm. On the procedure:
The MLS nanostructures were evaluated in terms of drug entrapment efficiency (EE), established as a ratio between the encapsulation (ED) over the initial quantity of the drug (ID), according to the Equation (1) below: (1) EE %=ED mg/ID mg×100 For the determination of EE, the S-loaded nanostructures were filtrated in 100 kDa Amicon filters (Amicon® Ultra 0.5 mL centrifuge filters - Millipore, Darmstadt, Germany) at 300× g for 10 min, 4 °C [17]. Unentrapped drug (filtered content) was collected and the absorbance was measured at 320 nm using a biophotometer (Eppendorf BioPhotometer® 6131, Hamburg, Germany) (Figure S1). […] Experiments were performed in triplicates.

Several values for one entry are separate records, joined by “and”; a condition that tells them apart may be missing. Equal entries are not always repeated.

For the compound `O=C(Cn1ccnc1[N+](=O)[O-])NCc1ccccc1` [BZ, benznidazole, reference compound], the values for the CC50 at 72 h in data set [1] and in data set [2] were 554.8 ± 4.9 µM and 284.4 ± 1.25 µM, respectively. Also, the “Morphological alterations in epimastigotes” value in data set [3] is “prominences in the cell body and distortion in the flagellum”. Besides, the figures for the IC50 in data set [4] and in data set [5] were 4.76 ± 4.45 µM and 15.8 ± 4.63 µM, respectively.

Regarding `CCCCNc1c(N(C)CCCN(C)C)c(=O)c1=O` [S, N, N’-Squaramide 17], the CC50 at 72 h in data set [1] came out at 1654 ± 5.2 µM; in data set [2], 736.2 ± 1.23 µM. Also, the Reduction of parasitemia with Trypanosoma cruzi was 67%. Further, in data set [3], the “Morphological alterations in epimastigotes” value is given as “a protuberance on the cell”. Moreover, the IC50 in data set [4] was found to be 51.2 ± 4.91 µM; in data set [5] it was 13.1 ± 5.12 µM. Further, in data set [6], the “Partition coefficient log P” value was 0.59. In addition, the Entrapment efficiency in data set [7] is 73.35% ± 2.05%; in data set [7] (listed as N, N’-Squaramide 17) it was 73.35%. The “Entrapment efficiency, single replicates” value in data set [7] (replicates 1-3, 320 nm, listed as N, N’-Squaramide 17) is 75.71% and 72.07% and 72.35%.

A word on the CC50: it is the concentration that lowers cell viability or growth by half. Usually IC50 stands for the point on the concentration scale where inhibition reaches its midpoint.

The record behind these values is PMC7730638, “Liposomes Composed by Membrane Lipid Extracts from Macrophage Cell Line as a Delivery of the Trypanocidal N,N’-Squaramide 17 towards Trypanosoma cruzi” (Materials, 2020).
